{
  "source": "patent US20250250251A1",
  "about": "“PIPERIDINYLPYRIDINYLCARBONITRILE DERIVATIVES AS INHIBITORS OF GLUTAMINYL-PEPTIDE CYCLOTRANSFERASE AND GLUTAMINYL-PEPTIDE CYCLOTRANSFERASE LIKE PROTEIN” (Boehringer Ingelheim International GmbH, priority 2024, published 2025)",
  "note": "pIC50: −log10 of the molar value.",
  "data": [
    {"target": "T1, QPCTL (Homo sapiens, UniProt Q9NXS2)", "T1 construct": "made in house", "T1 sequence (Q9NXS2 whole entry, species assumed)": "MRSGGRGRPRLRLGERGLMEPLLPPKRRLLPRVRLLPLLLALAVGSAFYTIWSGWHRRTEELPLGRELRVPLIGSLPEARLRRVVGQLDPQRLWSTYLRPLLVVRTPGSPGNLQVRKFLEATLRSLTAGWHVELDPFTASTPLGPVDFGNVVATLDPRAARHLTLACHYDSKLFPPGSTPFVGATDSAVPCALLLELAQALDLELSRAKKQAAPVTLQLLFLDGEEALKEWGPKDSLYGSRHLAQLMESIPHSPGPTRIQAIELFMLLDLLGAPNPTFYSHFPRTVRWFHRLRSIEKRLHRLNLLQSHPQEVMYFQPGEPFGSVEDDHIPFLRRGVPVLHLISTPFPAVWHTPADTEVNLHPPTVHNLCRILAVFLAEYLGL", "experiment": "Assay A: biochemical QPCTL activity assay (MALDI-TOF MS, CD47 peptide substrate)", "conditions": "Table 2, compounds of the invention, read-out: Inhibition of QPCTL: IC50", "procedure": "(§1) QPCT or QPCTL dependent conversion of N-terminal glutamine to pyroglutamate of CD47 was monitored via MALDI-TOF MS. Test compounds were dissolved in 100% DMSO and serially diluted into clear 1,536-well microtiter plates. Enzymatic reactions were set up in assay buffer containing 20 mM Tris pH 7.5, 0.1 mM TCEP, 0.01% BSA, and 0.001% Tween20. […] The plates were incubated for 10 min in a humidified incubator at 24° C. Subsequently, 2.5 μL of CD47 peptide substrate surrogate (^19[…]^33) was added to each well (final concentration: 10 μM for QPCTL/20 μM for QPCT). The plates were mixed for 30 sec at 1,000 rpm and subsequently incubated for 40 min in a humidified incubator at 24° C. […] The plates were sealed with an adhesive foil, mixed for 30 s at 1,000 rpm and stored at room temperature until preparation of the MALDI target plates. MALDI target plates were prepared as described previously. […] QPCT or QPCTL activity was monitored by calculating the ratio between product and internal standard signals followed by normalization to high (100% activity) and low (0% activity) controls. Determination of compound potencies was obtained by fitting the dose-response data to a four-parameter logistical equation.", "values": [
      {"smiles": "Cn1cnnc1C1(F)CCN(c2c(C#N)cc(-c3cnc(C(F)(F)F)nc3)nc2-c2cnc3nn(C(F)(F)F)cc3c2)CC1", "note": "[Example 20]", "pIC50": 8.70},
      {"smiles": "Cc1cc(C#N)c(N2CCC(F)(c3nncn3C)CC2)c(-c2cnc3nn(C(F)(F)F)cc3c2)n1", "note": "[Example 5]", "pIC50": 9.00},
      {"smiles": "Cn1cnnc1C1(F)CCN(c2c(C#N)cc(C3CC3(F)F)nc2-c2ccnnc2)CC1", "note": "(stereo not drawn) [Example 6]", "pIC50": 8.70}
    ]},
    {"system": "CYP3A4 mRNA", "experiment": "Assay D: CYP induction screening assay in primary human hepatocytes", "type": "in vitro ADME", "conditions": "Table 9, compounds of the invention, 48 h", "procedure": "Cryopreserved plateable human hepatocytes (single donor. BioIVT) were thawed and plated in Collagen-I coated 96-well-plates at a cell density of 0.07 million cells per well.\nAfter a 6 h attachment period, the seeding medium was replaced by serum-free William's medium E supplemented with Matrigel (0.25 mg/ml) and allowed to recover overnight. 24 h post-seeding, serum-free Williams E medium containing the test compound at a final concentration of […] and a final DMSO content of 0.1% and 0.1% DMSO (solvent-treated control), respectively, was added to predefined wells. Exposure solutions were renewed after 24 h.\nAfter 48 h of treatment in total, the effect of the test compounds on CYP3A4 mRNA expression was assessed using the QuantiGene Plex Gene Expression Assay. Hepatocytes were lysed and total RNA was extracted using the QuantiGene Sample Processing Kit according to the instructions of the manufacturer.\nmRNA quantification was conducted using a customized QuantiGene Plex Panel to analyse CYP3A4 and the housekeeper genes RPL32, EIF4E2 and GUSB according to the instructions of the manufacturer and measured on a Luminex™ instrument. Signal was reported as median fluorescence intensity (MFI), which is proportional to the number of target RNA molecules present in the sample.\nFor calculation of CYP3A4 mRNA induction, the signal for CYP3A4 was normalized against the geometric mean of the signal obtained for the housekeeper genes for hepatocytes exposed to test compounds in relation to solvent-treated samples according to the following equation: […]", "units": {"n-fold induction of CYP3A4 at 10 μM": "n-fold"}, "values": [
      {"smiles": "Cn1cnnc1C1(F)CCN(c2c(C#N)cc(-c3cnc(C(F)(F)F)nc3)nc2-c2cnc3nn(C(F)(F)F)cc3c2)CC1", "note": "[Example 20]", "n-fold induction of CYP3A4 at 10 μM": 0.5},
      {"smiles": "Cc1cc(C#N)c(N2CCC(F)(c3nncn3C)CC2)c(-c2cnc3nn(C(F)(F)F)cc3c2)n1", "note": "[Example 5]", "n-fold induction of CYP3A4 at 10 μM": 2.1},
      {"smiles": "Cn1cnnc1C1(F)CCN(c2c(C#N)cc(C3CC3(F)F)nc2-c2ccnnc2)CC1", "note": "(stereo not drawn) [Example 6]", "n-fold induction of CYP3A4 at 10 μM": 0.6}
    ]},
    {"system": "murine hepatocytes", "experiment": "Assay E: stability in murine hepatocytes", "type": "in vitro ADME, mouse", "conditions": "Table 12, compounds of the invention, 1 μM, 5% species serum", "procedure": "The metabolic degradation of the test compound is assayed in a murine hepatocyte suspension.\nMurine hepatocytes (typically cryopreserved) are incubated in an appropriate buffer system (e.g. Dulbecco's modified eagle medium plus 3.5 μg glucagon/500 mL, 2.5 mg insulin/500 mL and 3.75 mg/500 mL hydrocortison) containing 5% species serum.\nFollowing a (typically) 30 min preincubation in an incubator (37° C., 10% CO2) 5 μl of test compound solution (80 μM; from 2 mM in DMSO stock solution diluted 1:25 with medium) are added into 395 μl hepatocyte suspension (cell density in the range 0.25-5 Mio cells/mL, typically 1 Mio cells/mL; final concentration of test compound 1 μM, final DMSO concentration 0.05%).\nThe cells are incubated for six hours (incubator, orbital shaker) and samples (25 μl) are taken at 0, 0.5, 1, 2, 4 and 6 hours. Samples are transferred into acetonitrile and pelleted by centrifugation (5 min). The supernatant is transferred to a new 96-deepwell plate, evaporated under nitrogen and resuspended.\nDecline of parent compound is analyzed by HPLC-MS/MS\nCLint is calculated as follows CL_[…]=Dose/AUC=(C0/CD)/(AUD+clast/k)×1000/60. C0: initial concentration in the incubation [μM], CD: cell density of vital cells [10e6 cells/mL], AUD: area under the data [μM×h], clast: concentration of last data point [μM], k: slope of the regression line for parent decline [h−1].\nThe calculated in vitro hepatic intrinsic clearance can be scaled up to the intrinsic in vivo hepatic Clearance and used to predict hepatic in vivo blood clearance (CL) by the use of a liver model (well stirred model).\n[formula] [formula] [formula] • Hepatocellularity, mouse: 120×10e6 cells/g liver • Liver factor, mouse: 55 g/kg bodyweight • Blood flow, mouse: 90 ml/(min×kg)", "units": {"Mouse Hepatocyte Stability QH": "%"}, "values": [
      {"smiles": "Cn1cnnc1C1(F)CCN(c2c(C#N)cc(-c3cnc(C(F)(F)F)nc3)nc2-c2cnc3nn(C(F)(F)F)cc3c2)CC1", "note": "[Example 20]", "Mouse Hepatocyte Stability QH": "<12"},
      {"smiles": "Cc1cc(C#N)c(N2CCC(F)(c3nncn3C)CC2)c(-c2cnc3nn(C(F)(F)F)cc3c2)n1", "note": "[Example 5]", "Mouse Hepatocyte Stability QH": 16},
      {"smiles": "Cn1cnnc1C1(F)CCN(c2c(C#N)cc(C3CC3(F)F)nc2-c2ccnnc2)CC1", "note": "(stereo not drawn) [Example 6]", "Mouse Hepatocyte Stability QH": "<12"}
    ]},
    {"system": "not listed separately", "experiment": "Assay C: permeability in CACO-2 cells", "type": "in vitro ADME", "conditions": "human, pH 7.2; Table 7, compounds of the invention, CACO-2 cells", "procedure": "(§2) Caco-2 cells (1-2×10^5 cells/1 cm^2 area) are seeded on filter inserts (Costar transwell polycarbonate or PET filters, 0.4 μm pore size) and cultured (DMEM) for 10 to 25 days. Compounds are dissolved in appropriate solvent (like DMSO, 1-20 mM stock solutions). […] The transport solution (TL) is applied to the apical or basolateral donor side for measuring A-B or B-A permeability (3 filter replicates), respectively. Samples are collected at the start and end of experiment from the donor and at various time intervals for up to 2 hours also from the receiver side for concentration measurement by HPLC-MS/MS or scintillation counting. Sampled receiver volumes are replaced with fresh receiver solution.\n(§3) Efflux ratio (ER)=permeability B−A/permeability A−B", "units": {"Papp A→B": "×10⁻⁶ cm/s"}, "values": [
      {"smiles": "Cn1cnnc1C1(F)CCN(c2c(C#N)cc(-c3cnc(C(F)(F)F)nc3)nc2-c2cnc3nn(C(F)(F)F)cc3c2)CC1", "note": "[Example 20]", "Papp A→B": 4.3},
      {"smiles": "Cc1cc(C#N)c(N2CCC(F)(c3nncn3C)CC2)c(-c2cnc3nn(C(F)(F)F)cc3c2)n1", "note": "[Example 5]", "Papp A→B": 3.3},
      {"smiles": "Cn1cnnc1C1(F)CCN(c2c(C#N)cc(C3CC3(F)F)nc2-c2ccnnc2)CC1", "note": "(stereo not drawn) [Example 6]", "Papp A→B": 0.6}
    ]},
    {"system": "not listed separately", "experiment": "Assay C: permeability in CACO-2 cells", "type": "in vitro ADME", "conditions": "human, pH 7.2; Table 7, compounds of the invention, CACO-2 cells, permeability B-A/permeability A-B; read-out: Efflux Ratio", "procedure": "as §2, §3", "values": [
      {"smiles": "Cn1cnnc1C1(F)CCN(c2c(C#N)cc(-c3cnc(C(F)(F)F)nc3)nc2-c2cnc3nn(C(F)(F)F)cc3c2)CC1", "note": "[Example 20]", "efflux ratio": 12.8},
      {"smiles": "Cc1cc(C#N)c(N2CCC(F)(c3nncn3C)CC2)c(-c2cnc3nn(C(F)(F)F)cc3c2)n1", "note": "[Example 5]", "efflux ratio": 13},
      {"smiles": "Cn1cnnc1C1(F)CCN(c2c(C#N)cc(C3CC3(F)F)nc2-c2ccnnc2)CC1", "note": "(stereo not drawn) [Example 6]", "efflux ratio": 36.1}
    ]},
    {"target": "T2, QPCT (Homo sapiens, UniProt Q16769)", "T2 construct": "purchased Origine (OriGene) TP700028", "T2 sequence (Q16769 29-361)": "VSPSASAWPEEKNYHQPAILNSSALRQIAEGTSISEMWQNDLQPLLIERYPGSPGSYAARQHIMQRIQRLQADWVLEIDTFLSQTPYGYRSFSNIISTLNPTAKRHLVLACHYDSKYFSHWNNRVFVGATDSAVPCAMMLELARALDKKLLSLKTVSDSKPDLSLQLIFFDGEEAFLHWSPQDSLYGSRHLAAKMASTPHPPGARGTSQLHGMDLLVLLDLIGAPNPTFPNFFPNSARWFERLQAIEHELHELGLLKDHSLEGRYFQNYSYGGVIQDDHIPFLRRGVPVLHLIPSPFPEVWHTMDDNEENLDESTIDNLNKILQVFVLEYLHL", "experiment": "Assay A: biochemical QPCT activity assay (MALDI-TOF MS, CD47 peptide substrate)", "conditions": "Table 2, compounds of the invention, read-out: Inhibition of QPCT: IC50", "procedure": "as §1", "values": [
      {"smiles": "Cn1cnnc1C1(F)CCN(c2c(C#N)cc(-c3cnc(C(F)(F)F)nc3)nc2-c2cnc3nn(C(F)(F)F)cc3c2)CC1", "note": "[Example 20]", "pIC50": 9.00},
      {"smiles": "Cc1cc(C#N)c(N2CCC(F)(c3nncn3C)CC2)c(-c2cnc3nn(C(F)(F)F)cc3c2)n1", "note": "[Example 5]", "pIC50": 8.52},
      {"smiles": "Cn1cnnc1C1(F)CCN(c2c(C#N)cc(C3CC3(F)F)nc2-c2ccnnc2)CC1", "note": "(stereo not drawn) [Example 6]", "pIC50": 8.22}
    ]},
    {"system": "SIRPα signalling induced by Raji cells", "experiment": "Assay B: SIRPα signalling assay using Raji cells", "type": "cell-based", "conditions": "Homo sapiens, Table 4, compounds of the invention, read-out: Inhibition of SIRPα signalling induced by Raji cells: IC50", "procedure": "Bioassay reagent 1 of the PathHunter Bioassay detection kit (DiscoverX 93-0001) was added to each well of the plate using a multichannel pipette followed by a 15 min incubation at room temperature. Afterwards bioassay reagent 2 was added followed by 60 min incubation at room temperature (incubation in the dark).\n(§4) The analysis of the data was performed using the luminescence signal generated by beta-galactosidase in the PathHunter reporter cell line. The luminescence measurement was done using a Pherastar Multi-Mode Reader.", "values": [
      {"smiles": "Cn1cnnc1C1(F)CCN(c2c(C#N)cc(-c3cnc(C(F)(F)F)nc3)nc2-c2cnc3nn(C(F)(F)F)cc3c2)CC1", "note": "[Example 20]", "pIC50": 6.21},
      {"smiles": "Cc1cc(C#N)c(N2CCC(F)(c3nncn3C)CC2)c(-c2cnc3nn(C(F)(F)F)cc3c2)n1", "note": "[Example 5]", "pIC50": 7.51},
      {"smiles": "Cn1cnnc1C1(F)CCN(c2c(C#N)cc(C3CC3(F)F)nc2-c2ccnnc2)CC1", "note": "(stereo not drawn) [Example 6]", "pIC50": 6.65}
    ]},
    {"system": "SIRPα signalling induced by A549 cells", "experiment": "Assay B: SIRPα signalling assay using A549 cells", "type": "cell-based", "conditions": "Homo sapiens, Table 4, compounds of the invention, read-out: Inhibition of SIRPα signalling induced by A549 cells: IC50", "procedure": "Two cell types are independently used: the Raji cell line (lymphoblast-like human cell line derived from B lymphocytes from a Burkitt's lymphoma patient in 1963) and A549 cells (adenocarcinoma human alveolar basal epithelial cells).\nTest compounds were dissolved in 100% DMSO and serially diluted into a white 384-well microtiter cell culture plate (PerkinElmer #60076780 in case of Raji assay; PDL-coated plates Greiner #781945 in case of A549 assay). 5000 Raji cells (ATCC #CC86) or 5000 A549 cells (ATCC #CCL-185) in Assay Complete Cell Plating reagent 30 (DiscoverX 93-0563R30B) were added per well. The assay plate was incubated for 48 h at 37° C., 95% humidity and 5% CO2. 15000 reporter cells (Jurkat PathHunter SIRPαV1, DiscoverX #93-1135C19) were added to each well, and the plate was incubated for 5 h at 37° C., 95% humidity and 5% CO2. Bioassay reagent 1 of the PathHunter Bioassay detection kit (DiscoverX 93-0001) was added to each well of the plate using a multichannel pipette followed by a 15 min incubation at room temperature. Afterwards bioassay reagent 2 was added followed by 60 min incubation at room temperature (incubation in the dark).\nas §4, with “Reader. Dose-response curves & IC50 data were calculated with 4-parameter sigmoidal dose response formula.” for “Reader.”", "values": [
      {"smiles": "Cn1cnnc1C1(F)CCN(c2c(C#N)cc(-c3cnc(C(F)(F)F)nc3)nc2-c2cnc3nn(C(F)(F)F)cc3c2)CC1", "note": "[Example 20]", "pIC50": 6.96},
      {"smiles": "Cc1cc(C#N)c(N2CCC(F)(c3nncn3C)CC2)c(-c2cnc3nn(C(F)(F)F)cc3c2)n1", "note": "[Example 5]", "pIC50": 8.22},
      {"smiles": "Cn1cnnc1C1(F)CCN(c2c(C#N)cc(C3CC3(F)F)nc2-c2ccnnc2)CC1", "note": "(stereo not drawn) [Example 6]", "pIC50": 7.09}
    ]}
  ]
}
